Columns and labels:
hrCXCR2 = molecular target: T1, hrCXCR2 (Homo sapiens, UniProt P25025); experiment: Ligand binding assay ([125I]IL-8, HEK 293 membranes); conditions: displacement of ~50 pM [125I]IL-8 from membranes of HEK 293 cells expressing hrCXCR2, 1.5 hours at room temperature
T1 construct: expressed in transfected cells; host or cells: HEK 293 cells (ECACC No. 85120602), membrane preparation
T1 sequence (P25025 1-360): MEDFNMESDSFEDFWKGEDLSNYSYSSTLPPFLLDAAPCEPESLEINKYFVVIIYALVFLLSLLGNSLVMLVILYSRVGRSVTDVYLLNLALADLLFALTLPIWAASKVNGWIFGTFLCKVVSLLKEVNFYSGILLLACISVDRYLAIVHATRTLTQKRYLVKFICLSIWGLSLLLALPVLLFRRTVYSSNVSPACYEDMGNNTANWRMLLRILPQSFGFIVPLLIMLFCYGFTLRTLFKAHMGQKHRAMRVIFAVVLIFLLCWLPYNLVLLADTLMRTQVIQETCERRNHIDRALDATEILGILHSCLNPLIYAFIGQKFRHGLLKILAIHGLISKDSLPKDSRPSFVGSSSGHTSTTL
Description: [^125I]IL-8 (human, recombinant) was purchased from Amersham, U.K. with a specific activity of 2,000 Ci/mmol. All other chemicals were of analytical grade. High levels of hrCXCR2 were expressed in HEK 293 cells (human embryo kidney 293 cells ECACC No. 85120602) (Lee et al. (1992) J. Biol. Chem. 267 pp 16283-16291). hrCXC2 cDNA was amplified and cloned from human neutrophil mRNA. The DNA was cloned into PCRScript (Stratagene) and clones were identified using DNA. The coding sequence was sub-cloned into the eukaryotic expression vector RcCMV (Invitrogen). Plasmid DNA was prepared using Quiagen Megaprep 2500 and transfected into HEK 293 cells using Lipofectamine reagent (Gibco BRL). Cells of the highest expressing clone were harvested in phosphate-buffered saline containing 0.2%(w/v) ethylenediaminetetraacetic acid (EDTA) and centrifuged (200 g, 5 min.). The cell pellet was resuspended in ice cold homogenisation buffer [10 mM HEPES (pH 7.4), 1 mM dithiothreitol, 1 mM EDTA and a panel of protease inhibitors (1 mM phenyl methyl sulphonyl fluoride, 2 μg/ml soybean trypsin inhibitor, 3 mM benzamidine, 0.5 μg/ml leupeptin and 100 μg/ml bacitracin)] and the cells left to swell for 10 minutes. […] The backing plate was removed from the MultiScreen plate assembly, the filters dried at room temperature, punched out and then counted on a Cobra γ-counter.

[1] = molecular target: T2, CXCR2 receptor in human neutrophils (Homo sapiens, UniProt P25025); experiment: Intracellular calcium mobilisation assay (GROα, fluo-3, FLIPR); assay type: cell-based; conditions: A50 concentration of GROα, fluo-3 fluorescence
T2 construct: Human nutrophils were prepared from EDTA-treated peripheral blood; endogenous in cells; host or cells: human neutrophils from peripheral blood
T2 sequence (P25025 1-360): T1 sequence (P25025 1-360)
Procedure: Intracellular Calcium Mobilisation Assay
Human nutrophils were prepared from EDTA-treated peripheral blood, as previously described (Baly et al. (1997) Methods in Enzymology 287 pp 70-72), in storage buffer [Tyrode's salt solution (137 mM NaCl, 2.7 mM KCl, 0.4 mM NaH2PO4) supplemented with 5.7 mM glucose and 10 mM HEPES (pH 7.4)].
The chemokine GROα (human, recombinant) was purchased from R&D Systems (Abingdon, U.K.). All other chemicals were of analytical grade. Changes in intracellular free calcium were measured fluorometrically by loading neutrophils with the calcium sensitive fluorescent dye, fluo-3, as described previously (Merritt et al. (1990) Biochem. J. 269, pp513-519). Cells were loaded for 1 hour at 37° C. in loading buffer (storage buffer with 0.1% (w/v) gelatin) containing 5 μM fluo-3 AM ester, washed with loading buffer and then resuspended in Tyrode's salt solution supplemented with 5.7 mM glucose, 0.1% (w/v) bovine serum albumin (BSA), 1.8 mM CaCl2 and 1 mM MgCl2. […]
A compound of formula (I) according to the Examples was pre-dissolved in DMSO and added to a final concentration of 0.1% (v/v) DMSO. Assays were initiated by the addition of an A50 concentration of GROα and the transient increase in fluo-3 fluorescence (λEx=490 nm and λEm=520 nm) monitored using a FLIPR (Fluorometric Imaging Plate Reader, Molecular Devices, Sunnyvale, U.S.A.). […]

| Structure (SMILES) | IC50 (hrCXCR2) [µM] | antagonism of GROα-induced intracellular calcium increase [1] | melting point |
| --- | --- | --- | --- |
| CC(CO)(CO)Nc1nc(SCc2cccc(F)c2F)nc2[nH]c(=O)sc12 [compound of formula (I), 5-[[(2,3-Difluorophenyl)methyl]thio]-7-[[2-hydroxy-1-(hydroxymethyl) 1 methylethyl]amino]-thiazolo[4,5-d]pyrimidin-2(3H)-one] | < 10 | antagonist | 230 to 233 °C |
| CC(CO)(CO)Nc1nc(SCc2cccc(F)c2F)nc2[nH]c(=O)sc12.[Na] | – | – | 238 °C (dec.) |
